pIC50, pKi: −log10 of the molar value. Where two headings read alike, the source gives them in different places.
Tests used:
Assay type in all cases: biochemical
mICE [1] = target: T1, mICE (Mus musculus, UniProt P29452); assay: Fluorescence enzyme assay, IC50 determination, ICE
T1 sequence (P29452 123-296 limits assumed): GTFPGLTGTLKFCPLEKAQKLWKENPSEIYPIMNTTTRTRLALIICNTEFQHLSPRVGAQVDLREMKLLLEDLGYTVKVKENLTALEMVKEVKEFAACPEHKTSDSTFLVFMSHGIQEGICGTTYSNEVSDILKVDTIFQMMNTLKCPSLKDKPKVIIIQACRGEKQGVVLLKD
T1 sequence (P29452 315-402 limits assumed): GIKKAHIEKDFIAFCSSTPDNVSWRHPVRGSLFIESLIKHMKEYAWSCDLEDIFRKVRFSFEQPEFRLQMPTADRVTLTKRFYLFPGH
Procedure: (§1) Fluorescence enzyme assays detecting the activity of the compounds of Formula 1 utilizing the recombinant ICE and CPP32 enzymes are performed essentially according to Thornberry et al. (Nature, 356:768:774 (1992)) and Nicholson et al. (Nature, 376:37–43 (1995)) respectively, (herein incorporated by reference) in 96 well microtiter plates. The substrate is Acetyl-Tyr-Val-Ala-Asp-amino-4-methylcoumarin (AMC) for the ICE assay and Acetyl-Asp-Glu-Val-Asp-amino-4-methylcoumarin for the CPP32, Mch2, Mch3 and Mch5 assays. Enzyme reactions are run in ICE buffer (25 mM HEPES, 1 mM EDTA, 0.1% CHAPS, 10% sucrose, pH 7.5) containing 2 mM DTT at room temperature in duplicate.
(§2) The enzyme and the compound of Formula I to be assayed are allowed to preincubate in the microtitre plate wells for 30 minutes at room temperature prior to the addition of substrate to initiate the reaction. Fluorescent AMC product formation is monitored for one hour at room temperature by measuring the fluorescence emission at 460 nm using an excitation wavelength of 360 nm. The fluorescence change in duplicate (control) wells are averaged and the mean values are plotted as a function of inhibitor concentration to determine the inhibitor concentration producing 50% inhibition (IC50). The results of this assay are set forth below in Table 1 and in Table 3 (for Table 3, see Examples 11 through 52).
(§3) The reference compound for this assay was Cbz-ValAlaAsp-H and the values are denoted in Table 1 as “Reference”.

CPP32 [2] = target: T2, CPP32 (Homo sapiens, UniProt P42574); assay: Fluorescence enzyme assay, IC50 determination, CPP32
T2 sequence (P42574 29-175 limits assumed): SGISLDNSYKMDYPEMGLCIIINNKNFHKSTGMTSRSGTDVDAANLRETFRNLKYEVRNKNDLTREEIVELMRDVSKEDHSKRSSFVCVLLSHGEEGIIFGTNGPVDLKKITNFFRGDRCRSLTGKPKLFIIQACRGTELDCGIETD
T2 sequence (P42574 176-277 limits assumed): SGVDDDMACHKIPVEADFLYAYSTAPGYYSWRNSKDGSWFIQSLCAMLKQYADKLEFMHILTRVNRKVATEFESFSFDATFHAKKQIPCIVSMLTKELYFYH
Procedure: as §1, §2, §3

MCH-2 [3] = target: T3, MCH-2 (Homo sapiens, UniProt P55212); assay: Fluorescence enzyme assay, IC50 determination, Mch2
T3 sequence (P55212 24-179 limits assumed): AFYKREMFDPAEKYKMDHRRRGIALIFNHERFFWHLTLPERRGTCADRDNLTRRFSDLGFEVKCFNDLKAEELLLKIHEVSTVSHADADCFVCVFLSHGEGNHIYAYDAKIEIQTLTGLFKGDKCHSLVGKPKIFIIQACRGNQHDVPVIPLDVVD
T3 sequence (P55212 194-293 limits assumed): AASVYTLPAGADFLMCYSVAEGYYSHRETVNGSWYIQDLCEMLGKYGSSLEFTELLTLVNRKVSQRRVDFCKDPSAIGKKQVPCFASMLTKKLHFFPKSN
Procedure: as §1, §2, §3

MCH-3 = target: T4, MCH-3 (Homo sapiens, UniProt P55210); assay: Fluorescence enzyme assay, IC50 determination, Mch3
T4 sequence (P55210 24-198 limits assumed): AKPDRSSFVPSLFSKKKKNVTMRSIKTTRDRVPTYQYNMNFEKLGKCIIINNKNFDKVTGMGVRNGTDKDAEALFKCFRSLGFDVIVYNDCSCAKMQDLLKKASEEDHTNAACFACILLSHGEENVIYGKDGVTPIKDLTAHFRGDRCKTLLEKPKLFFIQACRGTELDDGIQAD
T4 sequence (P55210 207-303 limits assumed): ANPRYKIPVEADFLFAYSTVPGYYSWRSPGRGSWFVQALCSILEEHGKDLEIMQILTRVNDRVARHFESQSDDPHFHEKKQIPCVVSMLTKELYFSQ
Procedure: as §1, §2, §3

MCH-5 [4] = target: T5, MCH-5 (Homo sapiens, UniProt Q14790); assay: Fluorescence enzyme assay, IC50 determination, Mch5
Procedure: as §1, §2, §3

mICE [5] = target: T1, mICE; assay: Dissociation constant Ki and irreversible rate constant k3 for irreversible inhibitors, ICE; conditions: continuous assay 60 min, reaction initiated by adding enzyme
CPP32 [6] = target: T2, CPP32; assay: Dissociation constant Ki and irreversible rate constant k3 for irreversible inhibitors, CPP32; conditions: continuous assay 60 min, reaction initiated by adding enzyme
MCH-2 [7] = target: T3, MCH-2; assay: Dissociation constant Ki and irreversible rate constant k3 for irreversible inhibitors, Mch2; conditions: continuous assay 60 min, reaction initiated by adding enzyme
MCH-5 [8] = target: T5, MCH-5; assay: Dissociation constant Ki and irreversible rate constant k3 for irreversible inhibitors, Mch5; conditions: continuous assay 60 min, reaction initiated by adding enzyme
[9] = Table 3, method of Preparation 3A, read-out: mICE I50
[10] = Table 3, method of Preparation 3A, read-out: CPP32 I50
[11] = Table 3, method of Preparation 3A, read-out: MCH2 I50
[12] = Table 3, method of Preparation 3A, read-out: MCH3 I50
[13] = Table 3, method of Preparation 3A, read-out: MCH5 I50
[14] = recombinant enzyme, Ac-DEVD-AMC substrate, 30 min preincubation, room temperature, read-out: CPP32 IC50
[15] = Ac-DEVD-AMC substrate, 30 min preincubation, room temperature, read-out: MCH-2 IC50
[16] = Ac-DEVD-AMC substrate, 30 min preincubation, room temperature, read-out: MCH-3 IC50
[17] = Ac-DEVD-AMC substrate, 30 min preincubation, room temperature, read-out: MCH-5 IC50

T5 sequence (Q14790 217-374 limits assumed, species assumed): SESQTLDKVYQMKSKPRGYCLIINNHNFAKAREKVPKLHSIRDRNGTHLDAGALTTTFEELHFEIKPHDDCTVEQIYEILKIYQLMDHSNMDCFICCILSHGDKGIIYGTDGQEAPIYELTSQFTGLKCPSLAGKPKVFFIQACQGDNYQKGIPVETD
T5 sequence (Q14790 385-479 limits assumed, species assumed): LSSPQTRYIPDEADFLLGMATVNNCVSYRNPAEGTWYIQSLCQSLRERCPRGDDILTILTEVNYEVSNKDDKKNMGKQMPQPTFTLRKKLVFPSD

Compound	pIC50 (CPP32 [2]; [10])	pIC50 (MCH-2 [3]; [11])	pIC50 (MCH-3; [12])	pIC50 (MCH-5 [4]; [13])	pKi (mICE [5])	mICE k3/Ki (mICE [5])	CPP32 k3/Ki (CPP32 [6])	pKi (CPP32 [6])	pKi (MCH-2 [7])	MCH-2 k3/Ki (MCH-2 [7])	pKi (MCH-5 [8])	MCH-5 k3/Ki (MCH-5 [8])	also measured
CC(C)C[C@H](NC(=O)CCc1cccc2ccccc12)C(=O)N[C@H](C=O)CC(=O)O [Example 11]	5.80	5.38	5.06	4.91	–	–	–	–	–	–	–	–	pIC50 (mICE [1]; [9]): 5.73
CC(C)C[C@H](NC(=O)CCSc1cccc2ccccc12)C(=O)N[C@H](C=O)CC(=O)O [Example 24]	6.39	5.57	5.44	4.79	–	–	–	–	–	–	–	–	pIC50 (mICE [1]; [9]): 6.25
O=C[C@H](CC(=O)O)NC(=O)[C@@H]1Cc2ccccc2N1C(=O)COc1cccc2ccccc12 [Example 186, (2′S,3S)-3-[N-((1-Naphthyloxy)Acetyl)Indoline-2′-Carbonyl]Amino-4-Oxobutanoic Acid]	–	–	–	–	–	–	–	–	–	–	–	–	pIC50 (mICE [1]; recombinant enzyme, Ac-YVAD-AMC substrate, 30 min preincubation, room temperature, read-out: mICE IC50): 6.53; pIC50 (CPP32 [2]; [14]): 4.60; pIC50 (MCH-2 [3]; [15]): < 4.30; pIC50 (MCH-3; [16]): < 4.30; pIC50 (MCH-5 [4]; [17]): 4.40
CC(C)C[C@H](NC(=O)[C@H](CCC(=O)O)Oc1cccc2ccccc12)C(=O)N[C@H](C=O)CC(=O)O [Example 3, (3S,2′S)-3-[N-((2′-(1-Naphthyloxy)-4′-Carboxy)Butyryl)Leucinyl]Amino-4-Oxobutanoic Acid]	–	–	–	–	–	–	–	–	–	–	–	–	pIC50 (CPP32 [2]; [14]): 7.68; pIC50 (MCH-2 [3]; [15]): 7.82; pIC50 (MCH-3; [16]): 6.23; pIC50 (MCH-5 [4]; [17]): 7.92
CC(C)C[C@H](NC(=O)C(C)Oc1cccc2ccccc12)C(=O)N[C@H](C=O)CC(=O)O (stereo partly drawn) [Example 14]	6.42	5.89	5.88	5.61	–	–	–	–	–	–	–	–	–
CC(C)C[C@H](NC(=O)C(C)Oc1cccc2cc(Br)ccc12)C(=O)N[C@H](C=O)CC(=O)O (stereo partly drawn) [Example 15]	5.32	4.86	4.49	4.54	–	–	–	–	–	–	–	–	–
CC(C)[C@H](NC(=O)COc1cccc2ccccc12)C(=O)N[C@@H](CC(=O)O)C(=O)COP(C)(=O)c1ccccc1 (stereo partly drawn) [Example 104]	–	–	–	–	6.88	50,600 M^−1s^−1	151,000 M^−1s^−1	7.27	7.43	50,200 M^−1s^−1	7.23	15,500 M^−1s^−1	–
CC(C)C[C@H](NC(=O)CCOc1cccc2ccccc12)C(=O)N[C@H](C=O)CC(=O)O [Example 22]	7.23	6.52	5.86	5.01	–	–	–	–	–	–	–	–	–
CC(C)[C@H](NC(=O)COc1ccc2ccccc2c1)C(=O)N[C@@H](CC(=O)O)C(=O)COc1c(F)cc(F)cc1F [Example 156]	–	–	–	–	6.36	20,200 M^−1s^−1	49,700 M^−1s^−1	6.83	7.28	14,900 M^−1s^−1	6.53	3,990 M^−1s^−1	–
CC(C)[C@H](NC(=O)COc1cccc2ccccc12)C(=O)N[C@@H](CC(=O)O)C(=O)COc1c(F)c(F)c(F)c(F)c1F [Example 80]	–	–	–	–	6.03	4,700 M^−1s^−1	56,600 M^−1s^−1	7.00	7.64	13,600 M^−1s^−1	6.84	8,040 M^−1s^−1	–
CCCCCCP(=O)(OCC(=O)[C@H](CC(=O)O)NC(=O)[C@@H](NC(=O)COc1cccc2ccccc12)C(C)C)c1ccccc1 (stereo partly drawn) [Example 106]	–	–	–	–	6.78	42,500 M^−1s^−1	155,000 M^−1s^−1	7.32	7.10	52,900 M^−1s^−1	6.87	10,500 M^−1s^−1	–

From patent publication US7157430B2, “(Substituted)acyl dipeptidyl inhibitors of the ICE/CED-3 family of cysteine proteases” (Idun Pharmaceuticals, Inc., priority 1998, dated 2007)
